# Patent publication US12240862B2, “Inhibitors of peptidylarginine deiminases” (Gilead Sciences, Inc., priority 2020, dated 2025)
# Target: T1, human PAD4 (Homo sapiens, UniProt Q9UM07)
# T1 construct: human PAD4 (NM_012387), A2P663, was PCR amplified; His-SUMO (N, cleaved yes); made in house; host or cells: E. coli BL21(DE3)
# Test: In vitro PAD4 BAEE biochemical assay
# Conditions: human PAD4, BAEE substrate; 5 nM PAD4, 2 mM calcium chloride, 3 mM BAEE; geometric mean of multiple experiments
# Summary of the method: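 Ammonia generated from BAEE serves as the readout, measured by o-phthalaldehyde after EDTA termination. Final conditions: 5 nM human PAD4 (SUMO tag cleaved), 2 mM CaCl2, 3 mM BAEE, pH 7.6 MOPS buffer, 25 °C for 2 h following a 30-min compound preincubation.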
# T1 sequence (Q9UM07 2-663): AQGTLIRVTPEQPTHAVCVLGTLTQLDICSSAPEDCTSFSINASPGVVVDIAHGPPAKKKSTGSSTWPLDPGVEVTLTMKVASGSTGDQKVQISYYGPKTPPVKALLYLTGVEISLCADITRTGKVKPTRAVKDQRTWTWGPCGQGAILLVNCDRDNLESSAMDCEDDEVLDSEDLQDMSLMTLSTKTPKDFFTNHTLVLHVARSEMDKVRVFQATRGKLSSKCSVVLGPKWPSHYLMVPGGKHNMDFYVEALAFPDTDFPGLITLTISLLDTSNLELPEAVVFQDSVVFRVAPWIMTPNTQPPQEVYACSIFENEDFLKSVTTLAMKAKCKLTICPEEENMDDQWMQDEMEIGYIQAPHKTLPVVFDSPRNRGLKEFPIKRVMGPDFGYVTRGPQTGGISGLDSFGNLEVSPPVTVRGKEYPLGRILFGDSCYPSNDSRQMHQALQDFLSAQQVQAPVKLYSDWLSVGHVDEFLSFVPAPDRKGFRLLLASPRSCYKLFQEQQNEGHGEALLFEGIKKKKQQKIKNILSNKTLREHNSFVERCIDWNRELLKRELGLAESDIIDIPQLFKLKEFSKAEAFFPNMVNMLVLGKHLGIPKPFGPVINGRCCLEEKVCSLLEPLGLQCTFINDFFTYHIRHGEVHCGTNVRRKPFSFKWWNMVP
row,SMILES,IC50
1,"COc1cc(C(=O)N2[C@H]3CC[C@@H]2[C@H](N)C3)cc2nc(-c3cc4ccc([C@@H](C)NC(=O)c5ncccn5)nc4n3CC3CC3)c(C)n12 [Example 118, ~{N}-[(1~{R})-1-[2-[7-[(1~{R},2~{R},4~{S})-2-amino-7-azabicyclo[2.2.1]heptane-7-carbonyl]-5-methoxy-3-methylimidazo [1,2-a]pyridin-2-yl]-1-(cyclopropylmethyl)pyrrolo [2,3-b]pyridin-6-yl]ethyl]pyrimidine-2-carboxamide]",63.7 nM
2,"COc1nn(C)cc1C(=O)N[C@H](C)c1ccc2cc(-c3nc4cc(C(=O)N5[C@H]6CC[C@@H]5[C@H](N)C6)cc(OC)n4c3C)n(CC3CC3)c2n1 [Example 26, ~{N}-[(1~{R})-1-[2-[7-[(1~{R},2~{R},4~{S})-2-amino-7-azabicyclo [2.2.1]heptane-7-carbonyl]-5-methoxy-3-methylimidazo [1,2-a]pyridin-2-yl]-1-(cyclopropylmethyl)pyrrolo[2,3-b]pyridin-6-yl]ethyl]-3-methoxy-1-methylpyrazole-4-carboxamide]",151 nM
3,"CCc1ccc2cc(-c3nc4cc(C(=O)N5C[C@@]6(N)CC[C@@H]5C6)cc(OC)n4c3C)n(CC3CC3)c2n1 [Example 588, [(1~{R},4~{R})-4-amino-2-azabicyclo[2.2.1]heptan-2-yl]-[2-[1-(cyclopropylmethyl)-6-ethylpyrrolo[2,3-b]pyridin-2-yl]-5-methoxy-3-methylimidazo[1,2-a]pyridin-7-yl]methanone]",10600 nM
4,"COc1cc(C(=O)N2C[C@H]3C[C@H](C)[C@@H]2[C@@H]3N)cc2nc(-c3cc4ccc([C@@H](C)NC(=O)C(C)(C)C)nc4n3CC3CC3)c(C)n12 [Example 167, N-((R)-1-(2-(7-((1R,4R,6S,7R)-7-amino-6-methyl-2-azabicyclo[2.2.1]heptane-2-carbonyl)-5-methoxy-3-methylimidazo [1,2-a]pyridin-2-yl)-1-(cyclopropylmethyl)-1H-pyrrolo [2,3-b]pyridin-6-yl)ethyl) pivalamide]",2700 nM
5,"CC(=O)NCc1c(-c2cc3ccc(N(C(F)F)S(C)(=O)=O)nc3n2CC2CC2)nc2cc(C(=O)N3CCC[C@@H](N)C3)ccn12 [Example 437, ~{N}-[[7-[(3~{R})-3-aminopiperidine-1-carbonyl]-2-[1-(cyclopropylmethyl)-6-[difluoromethyl (methylsulfonyl)amino]pyrrolo[2,3-b]pyridin-2-yl]imidazo[1,2-a]pyridin-3-yl]methyl]acetamide]",550 nM
6,COc1cc(C(=O)N2[C@H]3CC[C@@H]2[C@H](N)C3)cc2nc(-c3cc4ccc([C@@H](C)NC(=O)CN=S(C)(C)=O)nc4n3CC3CC3)c(C)n12 [Example 96],39 nM
7,"COc1cc(C(=O)N2[C@H]3CC[C@@H]2[C@H](N)C3)cc2nc(-c3cc4ccc([C@@H](C)NC(=O)N(C(C)C)C(C)C)nc4n3CC3CC3)c(C)n12 [Example 236, 3-[(1~{R})-1-[2-[7-[(1~{R},2~{R},4~{S})-2-amino-7-azabicyclo[2.2.1]heptane-7-carbonyl]-5-methoxy-3-methylimidazo [1,2-a]pyridin-2-yl]-1-(cyclopropylmethyl)pyrrolo [2,3-b]pyridin-6-yl]ethyl]-1,1-di(propan-2-yl)urea]",55.6 nM
8,"COc1cc(C(=O)N2CCC3CCNCC32)cc2nc(-c3cc4ccc(N(C(F)F)S(C)(=O)=O)nc4n3CC3CC3)c(C)n12 (centres unmarked) [Example 322, ~{N}-[2-[7-(2,3,3~{a}, 4,5,6,7,7~ {a}-octahydropyrrolo[2,3-c]pyridine-1-carbonyl)-5-methoxy-3-methylimidazo [1,2-a]pyridin-2-yl]-1-(cyclopropylmethyl)pyrrolo [2,3-b]pyridin-6-yl]-~{N}-(difluoromethyl) methanesulfonamide]",258 nM
9,"COc1cc(C(=O)N2[C@H]3CC[C@@H]2[C@H](N)C3)cc2nc(-c3cc4ccc(C5CCCN(C(=O)C(C)(C)C)C5)nc4n3CC3CC3)c(C)n12 (some centres unmarked) [Example 517, 1-[3-[2-[7-[(1~{R},2~{R}, 4~{S})-2-amino-7-azabicyclo[2.2.1]heptane-7-carbonyl]-5-methoxy-3-methylimidazo[1,2-a]pyridin-2-yl]-1-(cyclopropylmethyl)pyrrolo[2,3-b]pyridin-6-yl]piperidin-1-yl]-2,2-dimethylpropan-1-one]",618 nM
10,"CCc1ccc2cc(-c3nc4cc(C(=O)N5[C@H]6CC[C@@H]5[C@H](N)C6)cc(OC)n4c3C)n(CCS(C)(=O)=O)c2n1 [Example 498, [(1~{R},2~{R},4~{S})-2-amino-7-azabicyclo [2.2.1]heptan-7-yl]-[2-[6-ethyl-1-(2-methylsulfonylethyl)pyrrolo[2,3-b]pyridin-2-yl]-5-methoxy-3-methylimidazo[1,2-a]pyridin-7-yl]methanone]",673 nM
11,"COc1cc(C(=O)N2[C@H]3CC[C@@H]2[C@H](N)C3)cc2nc(-c3cc4ccc([C@@H](C)Nc5cnccn5)nc4n3CC3CC3)c(C)n12 [Example 263, [(1~{R},2~{R},4~{S})-2-amino-7-azabicyclo [2.2.1]heptan-7-yl]-[2-[1-(cyclopropylmethyl)-6-[(1~{R})-1-(pyrazin-2-ylamino)ethyl]pyrrolo [2,3-b]pyridin-2-yl]-5-methoxy-3-methylimidazo[1,2-a]pyridin-7-yl]methanone]",71.1 nM
12,"COc1cc(C(=O)N2C[C@@H]3NCCO[C@@H]3C2)cc2nc(-c3cc4ccc(N(C(F)F)S(C)(=O)=O)nc4n3CC3CC3)c(C)n12 [Example 320, ~{N}-[2-[7-[(4~{a}~{S},7~{a}~{R})-3,4,4~{a},5,7,7~{a}-hexahydro-2~{H}-pyrrolo[3,4-b][1,4]oxazine-6-carbonyl]-5-methoxy-3-methylimidazo [1,2-a]pyridin-2-yl]-1-(cyclopropylmethyl)pyrrolo [2,3-b]pyridin-6-yl]-~{N}-(difluoromethyl) methanesulfonamide]",19100 nM
13,"COc1cc(C(=O)N2[C@H]3CC[C@@H]2[C@H](N)C3)cc2nc(-c3cc4ccc(N5CCOc6ccccc6S5(=O)=O)nc4n3CC3CC3)c(C)n12 [Example 460, [(1~{R},2~{R},4~{S})-2-amino-7-azabicyclo [2.2.1]heptan-7-yl]-[2-[1-(cyclopropylmethyl)-6-(1,1-dioxo-3,4-dihydro-5,1$l^6,2-benzoxathiazepin-2-yl)pyrrolo[2,3-b]pyridin-2-yl]-5-methoxy-3-methylimidazo[1,2-a]pyridin-7-yl]methanone]",99.9 nM
14,"COc1cc(C(=O)N2[C@H]3CC[C@@H]2[C@H](N)C3)cc2nc(-c3cc4ccc([C@@H](C)NC(=O)NC5COC5)nc4n3CC3CC3)c(C)n12 [Example 229, 1-[(1~{R})-1-[2-[7-[(1~{R},2~{R},4~{S})-2-amino-7-azabicyclo[2.2.1]heptane-7-carbonyl]-5-methoxy-3-methylimidazo [1,2-a]pyridin-2-yl]-1-(cyclopropylmethyl)pyrrolo [2,3-b]pyridin-6-yl]ethyl]-3-(oxetan-3-yl)urea]",108 nM
15,"COc1cc(C(=O)N2CCC[C@@H](N)C2)cc2nc(-c3cc4ccc(C(NC(C)=O)C5CC5)nc4n3CC3CC3)c(C)n12 (stereo partly drawn) [Example 194, N-((2-(7-((R)-3-aminopiperidine-1-carbonyl)-5-methoxy-3-methylimidazo[1,2-a]pyridin-2-yl)-1-(cyclopropylmethyl)-1H-pyrrolo[2,3-b]pyridin-6-yl)(cyclopropyl)methyl)acetamide]",1090 nM
16,"[2H]C([2H])([2H])N(c1ccc2cc(-c3nc4cc(C(=O)N5C[C@H]6CC[C@@H]5[C@@H]6N)cc(OC)n4c3C)n(CC)c2n1)S(C)(=O)=O [Example 366, N-[2-[7-[(1R,4R,7R)-7-amino-2-azabicyclo[2.2.1]heptane-2-carbonyl]-5-methoxy-3-methyl-imidazo[1,2-a]pyridin-2-yl]-1-ethyl-pyrrolo [2,3-b]pyridin-6-yl]-N-(trideuteriomethyl) methanesulfonamide]",499 nM
17,"COc1cc(C(=O)N2[C@H]3CC[C@@H]2[C@H](N)C3)cc2nc(-c3cc4ccc([C@@H](C)NC(=O)N5CC6CC(C5)O6)nc4n3CC3CC3)c(C)n12 [Example 211, ~{N}-[(1~{R})-1-[2-[7-[(1~{R},2~{R},4~{S})-2-amino-7-azabicyclo[2.2.1]heptane-7-carbonyl]-5-methoxy-3-methylimidazo [1,2-a]pyridin-2-yl]-1-(cyclopropylmethyl)pyrrolo [2,3-b]pyridin-6-yl]ethyl]-6-oxa-3-azabicyclo [3.1.1]heptane-3-carboxamide]",31.6 nM
18,COc1cc(C(=O)N2CC[C@H]3OCCCN[C@H]3C2)cc2nc(-c3cc4ccc(N(C(F)F)S(C)(=O)=O)nc4n3CC3CC3)c(C)n12 [Example 359],420 nM
19,"COc1cc(C(=O)N2C[C@H](N)[C@@H]3CC[C@H]2C3)cc2nc(-c3cc4ccc([C@@H](C)NC(=O)C56CC(C#N)(C5)C6)nc4n3CC3CC3)c(C3CC3)n12 [Example 632, N-((R)-1-(2-(7-((1S,4R,5R)-4-amino-2-azabicyclo[3.2.1]octane-2-carbonyl)-3-cyclopropyl-5-methoxyimidazo[1,2-a]pyridin-2-yl)-1-(cyclopropylmethyl)-1H-pyrrolo[2,3-b]pyridin-6-yl)ethyl)-3-cyanobicyclo [1.1.1]pentane-1-carboxamide]",140 nM
20,"COc1cc(C(=O)N2CCC[C@@H](N)C2)cc2nc(-c3cc4ccc(O[C@@H](C)C(=O)NC56CC(F)(C5)C6)nc4n3CC3CC3)c(C)n12 [Example 631, (2~{S})-2-[2-[7-[(3~{R})-3-aminopiperidine-1-carbonyl]-5-methoxy-3-methylimidazo[1,2-a]pyridin-2-yl]-1-(cyclopropylmethyl)pyrrolo[2,3-b]pyridin-6-yl]oxy-~{N}-(3-fluoro-1-bicyclo[1.1.1]pentanyl)propanamide]",10000 nM
